In ChEMBL document CHEMBL2439988, “Inhibition of human carbonic anhydrase isoforms I-XIV with sulfonamides incorporating fluorine and 1,3,5-triazine moieties” (Bioorg Med Chem, 2013):

Key:
Carbonic anhydrase 12 = Carbonic anhydrase 12 (Homo sapiens, UniProt O43570); assay: Inhibition of human recombinant carbonic anhydrase12 transmembrane isoform expressed in Escherichia coli BL21 preincubated for 15 mins by stopped-flow CO2 hydration assay
Carbonic anhydrase 1 = Carbonic anhydrase 1 (Homo sapiens, UniProt P00915); assay: Inhibition of human recombinant carbonic anhydrase1 cytosolic isoform expressed in Escherichia coli BL21 preincubated for 15 mins by stopped-flow CO2 hydration assay
Chain of Carbonic anhydrase 1 (P00915 whole entry, canonical isoform): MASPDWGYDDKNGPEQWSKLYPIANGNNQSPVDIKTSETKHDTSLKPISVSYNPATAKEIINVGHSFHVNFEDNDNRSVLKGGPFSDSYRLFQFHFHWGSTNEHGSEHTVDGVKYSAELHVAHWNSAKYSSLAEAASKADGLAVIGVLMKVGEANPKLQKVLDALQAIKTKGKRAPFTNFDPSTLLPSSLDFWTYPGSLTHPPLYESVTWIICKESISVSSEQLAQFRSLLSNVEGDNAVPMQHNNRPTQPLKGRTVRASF

Carbonic anhydrase 2 = Carbonic anhydrase 2 (Homo sapiens, UniProt P00918); assay: Inhibition of human recombinant carbonic anhydrase2 cytosolic isoform expressed in Escherichia coli BL21 preincubated for 15 mins by stopped-flow CO2 hydration assay
Carbonic anhydrase 13 = Carbonic anhydrase 13 (Homo sapiens, UniProt Q8N1Q1); assay: Inhibition of human recombinant carbonic anhydrase13 cytosolic isoform expressed in Escherichia coli BL21 preincubated for 15 mins by stopped-flow CO2 hydration assay
Chain of Carbonic anhydrase 13 (Q8N1Q1 whole entry, canonical isoform): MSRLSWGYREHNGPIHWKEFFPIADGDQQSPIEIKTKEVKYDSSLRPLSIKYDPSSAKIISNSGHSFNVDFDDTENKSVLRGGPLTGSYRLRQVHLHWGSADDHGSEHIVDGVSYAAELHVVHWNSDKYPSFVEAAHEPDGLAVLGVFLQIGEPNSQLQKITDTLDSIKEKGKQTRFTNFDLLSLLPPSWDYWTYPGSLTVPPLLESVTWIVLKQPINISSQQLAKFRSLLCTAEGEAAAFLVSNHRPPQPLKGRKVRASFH

Carbonic anhydrase 9 = Carbonic anhydrase 9 (Homo sapiens, UniProt Q16790); assay: Inhibition of human recombinant carbonic anhydrase9 transmembrane isoform expressed in Escherichia coli BL21 preincubated for 15 mins by stopped-flow CO2 hydration assay
Carbonic anhydrase 7 = Carbonic anhydrase 7 (Homo sapiens, UniProt P43166); assay: Inhibition of human recombinant carbonic anhydrase7 cytosolic isoform expressed in Escherichia coli BL21 preincubated for 15 mins by stopped-flow CO2 hydration assay
Chain of Carbonic anhydrase 7 (P43166 whole entry, canonical isoform): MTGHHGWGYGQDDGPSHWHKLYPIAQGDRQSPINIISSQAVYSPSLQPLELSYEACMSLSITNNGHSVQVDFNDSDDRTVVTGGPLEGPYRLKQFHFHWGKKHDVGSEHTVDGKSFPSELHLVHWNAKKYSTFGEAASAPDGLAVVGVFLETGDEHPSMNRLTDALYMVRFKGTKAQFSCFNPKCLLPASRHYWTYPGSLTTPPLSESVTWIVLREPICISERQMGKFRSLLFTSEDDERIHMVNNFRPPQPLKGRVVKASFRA

Carbonic anhydrase 6 = Carbonic anhydrase 6 (Homo sapiens, UniProt P23280); assay: Inhibition of human recombinant carbonic anhydrase6 secreted isoform expressed in Escherichia coli BL21 preincubated for 15 mins by stopped-flow CO2 hydration assay
Chain of Carbonic anhydrase 6 (P23280 whole entry, canonical isoform): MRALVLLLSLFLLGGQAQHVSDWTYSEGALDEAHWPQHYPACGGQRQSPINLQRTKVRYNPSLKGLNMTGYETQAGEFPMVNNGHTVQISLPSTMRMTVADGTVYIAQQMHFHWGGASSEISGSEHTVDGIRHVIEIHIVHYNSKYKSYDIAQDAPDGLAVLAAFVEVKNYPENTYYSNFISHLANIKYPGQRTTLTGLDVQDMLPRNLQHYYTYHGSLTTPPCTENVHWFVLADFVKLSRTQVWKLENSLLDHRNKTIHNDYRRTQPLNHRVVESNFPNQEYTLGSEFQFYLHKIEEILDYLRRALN

[1] = molecular target: Carbonic anhydrase 5A, mitochondrial (Homo sapiens, UniProt P35218); assay: Inhibition of human recombinant carbonic anhydrase5A mitochondrial isoform expressed in Escherichia coli BL21 preincubated for 15 mins by stopped-flow CO2 hydration assay
Chain of Carbonic anhydrase 5A, mitochondrial (P35218 whole entry, canonical isoform): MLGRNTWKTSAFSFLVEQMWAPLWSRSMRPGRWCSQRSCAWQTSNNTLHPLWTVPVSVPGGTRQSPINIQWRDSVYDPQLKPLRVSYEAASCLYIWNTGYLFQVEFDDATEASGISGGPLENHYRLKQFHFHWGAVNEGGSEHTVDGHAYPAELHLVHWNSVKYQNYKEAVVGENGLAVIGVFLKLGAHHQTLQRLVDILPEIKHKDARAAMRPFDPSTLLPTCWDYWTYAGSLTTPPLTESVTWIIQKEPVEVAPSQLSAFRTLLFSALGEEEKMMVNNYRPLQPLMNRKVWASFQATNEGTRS

Carbonic anhydrase 3 = Carbonic anhydrase 3 (Homo sapiens, UniProt P07451); assay: Inhibition of human recombinant carbonic anhydrase3 cytosolic isoform expressed in Escherichia coli BL21 preincubated for 15 mins by stopped-flow CO2 hydration assay
Chain of Carbonic anhydrase 3 (P07451 whole entry, canonical isoform): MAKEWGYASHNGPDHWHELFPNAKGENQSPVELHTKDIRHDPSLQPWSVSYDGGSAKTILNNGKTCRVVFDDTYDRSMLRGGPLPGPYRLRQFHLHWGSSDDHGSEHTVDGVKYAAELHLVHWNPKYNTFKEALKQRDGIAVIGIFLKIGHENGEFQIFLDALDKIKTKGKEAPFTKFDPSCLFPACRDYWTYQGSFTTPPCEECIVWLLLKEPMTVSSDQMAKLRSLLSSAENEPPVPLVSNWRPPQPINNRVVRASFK

Carbonic anhydrase 14 = Carbonic anhydrase 14 (Homo sapiens, UniProt Q9ULX7); assay: Inhibition of human recombinant carbonic anhydrase14 transmembrane isoform expressed in Escherichia coli BL21 preincubated for 15 mins by stopped-flow CO2 hydration assay
Chain of Carbonic anhydrase 14 (Q9ULX7 whole entry, canonical isoform): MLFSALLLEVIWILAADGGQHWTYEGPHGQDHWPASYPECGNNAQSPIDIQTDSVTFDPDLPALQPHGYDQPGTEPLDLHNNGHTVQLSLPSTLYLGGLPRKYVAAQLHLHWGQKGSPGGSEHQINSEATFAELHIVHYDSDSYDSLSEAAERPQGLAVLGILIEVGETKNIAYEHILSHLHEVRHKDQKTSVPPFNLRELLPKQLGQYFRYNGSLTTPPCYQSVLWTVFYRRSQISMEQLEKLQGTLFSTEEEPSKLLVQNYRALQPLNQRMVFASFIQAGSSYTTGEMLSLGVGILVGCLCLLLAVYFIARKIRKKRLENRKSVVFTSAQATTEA

Carbonic anhydrase 4 = Carbonic anhydrase 4 (Homo sapiens, UniProt P22748); assay: Inhibition of human recombinant carbonic anhydrase4 membrane-bound isoform expressed in Escherichia coli BL21 preincubated for 15 mins by stopped-flow CO2 hydration assay
Chain of Carbonic anhydrase 4 (P22748 whole entry, canonical isoform): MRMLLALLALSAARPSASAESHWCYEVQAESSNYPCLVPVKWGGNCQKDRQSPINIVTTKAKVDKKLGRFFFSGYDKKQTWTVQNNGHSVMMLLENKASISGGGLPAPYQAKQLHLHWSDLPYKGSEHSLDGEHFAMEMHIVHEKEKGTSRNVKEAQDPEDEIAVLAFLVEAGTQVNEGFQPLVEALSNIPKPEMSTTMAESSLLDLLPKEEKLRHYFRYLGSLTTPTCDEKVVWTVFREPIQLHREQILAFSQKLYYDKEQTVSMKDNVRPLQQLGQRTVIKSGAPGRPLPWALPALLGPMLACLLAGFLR

Chain of Carbonic anhydrase 12 (O43570 whole entry, canonical isoform): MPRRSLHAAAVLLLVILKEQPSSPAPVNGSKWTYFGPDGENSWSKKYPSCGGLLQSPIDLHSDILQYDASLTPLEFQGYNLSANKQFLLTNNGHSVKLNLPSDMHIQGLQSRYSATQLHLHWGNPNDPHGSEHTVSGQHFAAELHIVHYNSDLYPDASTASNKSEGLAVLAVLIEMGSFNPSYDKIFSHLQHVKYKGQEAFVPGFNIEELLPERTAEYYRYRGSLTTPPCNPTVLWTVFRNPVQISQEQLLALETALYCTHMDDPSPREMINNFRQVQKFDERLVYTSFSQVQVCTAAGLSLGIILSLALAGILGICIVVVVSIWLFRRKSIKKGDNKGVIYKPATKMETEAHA

SMILES	Ki (Carbonic anhydrase 12)	Ki (Carbonic anhydrase 1)	Ki (Carbonic anhydrase 2)	Ki (Carbonic anhydrase 13)	Ki (Carbonic anhydrase 9)	Ki (Carbonic anhydrase 7)	Ki (Carbonic anhydrase 6)	Ki [1]	Ki (Carbonic anhydrase 3)	Ki (Carbonic anhydrase 14)	Ki (Carbonic anhydrase 4)
NS(=O)(=O)c1ccc(Nc2nc(F)nc(NCCO)n2)cc1	17.5 nM	238 nM	5.5 nM	> 10000 nM	208 nM	8.5 nM	–	–	–	–	–
NS(=O)(=O)c1ccc(CCNc2nc(F)nc(NCC(=O)O)n2)cc1	4.5 nM	250 nM	5 nM	> 10000 nM	214 nM	8.3 nM	148 nM	915 nM	9020 nM	126 nM	3660 nM
CNc1nc(NC)nc(Nc2ccc(S(N)(=O)=O)cc2)n1	–	–	–	921 nM	–	45 nM	–	–	–	–	–
NS(=O)(=O)c1ccc(Nc2nc(F)nc(F)n2)cc1	10 nM	88 nM	4.9 nM	1030 nM	–	6.2 nM	–	–	–	–	–
CNc1nc(F)nc(Nc2ccc(S(N)(=O)=O)cc2)n1	15.4 nM	90 nM	5.4 nM	735 nM	228 nM	6.7 nM	–	–	–	–	–
NS(=O)(=O)c1ccc(CCNc2nc(F)nc(F)n2)cc1	4.6 nM	203 nM	7.1 nM	470 nM	–	21.9 nM	1390 nM	> 10000 nM	7010 nM	42 nM	1360 nM
COC(=O)CNc1nc(F)nc(NCCc2ccc(S(N)(=O)=O)cc2)n1	5 nM	81.5 nM	5.6 nM	602 nM	199 nM	6.5 nM	167 nM	650 nM	6860 nM	214 nM	2740 nM
